# Results: patent US12295365B2, “Composition including an antimicrobial boosting agent including a sultaine and methods of increasing the antimicrobial effectiveness of a composition” (KIMBERLY-CLARK WORLDWIDE, INC., priority 2018, dated 2025)
# Where a name gives a salt, the structure may show the parent alone.
# System: B. cepacia (ATCC 25416)
# Test: Minimum Effective Concentration (MEC) Test Method
# Type: cell-based, Burkholderia cepacia
# Conditions: boosting agent (the label) at 5 mmol/L; 24 hours at room temperature
# Description: Initial testing was conducted to screen a variety of surfactants in researching for potential antimicrobial boosting agents. The initial testing followed the methodology as described in the Minimum Effective Concentration (“MEC”) Test Method described in the Test Methods section herein. To summarize, the MEC testing paired a variety of potential antimicrobial boosting agents with a variety of known antimicrobial agents to determine the MEC of the respective antimicrobial agent that must be used to provide an effective antimicrobial result, as described in further detail in the Test Methods section. The more positive the boosting characteristics of an antimicrobial boosting agent, then the lower the MEC that would be required for the paired antimicrobial agent. It is to be noted that the molarities listed in Table 1 are approximate values that were calculated based on the estimated activities of the ingredients and the molecular weights of the active ingredients. In instances where an exact activity was not available for an ingredient blend, the ingredient blend activity was estimated as the average of the upper and lower limits of the specification provided by the manufacturer of such blend. In instances where an exact molecular weight could not be calculated (for example, in compounds derived from a natural oil like coconut oil), the molecular weight of the active was estimated based on a weighted average of the molecular weights of the constituent species.
# The Minimum Effective Concentration Test Method discussed herein began by adding B. cepacia (ATCC 25416) culture at a final concentration of approximately 5×10^6 CFU/mL to the composition to be challenged. The challenged composition was then allowed to incubate at room temperature for 24 hours. After 24 hours, a preservative neutralizing broth was added to the mixture and measurements were subsequently taken to determine the concentration of B. cepacia still remaining after exposure to the test composition.
# The Minimum Effective Concentration was determined by completing the process described above on a series of compositions with the same concentration of antimicrobial boosting agent, but with different concentrations of antimicrobial agent. The Minimum Effective Concentration of antimicrobial agent for any given value of antimicrobial boosting agent was defined as the minimum concentration of antimicrobial agent required to reduce the concentration of B. cepacia to a level below the detection threshold for the test method, which was approximately 100 CFU/mL. In instances where multiple rounds of Minimum Effective Concentration testing were completed, the value reported is the mean of the Minimum Effective Concentration values generated by each individual series of tests.
Compound,MEC of Lactic Acid (Purac FCC 88) paired with the potential boosting agent [mmol/L],MEC of Caprylhydroxamic Acid (Zeastat) paired with the potential boosting agent [mmol/L],MEC of Hydroxyacetophenone (SymSave H) paired with the potential boosting agent [mmol/L],MEC of Sodium Benzoate paired with the potential boosting agent [mmol/L]
Laureth-3 Phosphate,40,–,–,–
CCCCCCCCCCCC(=O)OC(C)C(=O)OC(C)C(=O)[O-].[Na+] (stereo not shown) [Sodium Lauroyl Lactylate],30,–,–,–
"CCCCCCCC[N+](C)(C)CCCS(=O)(=O)[O-] [Caprylyl Sultaine, 3-(N,N-Dimethyloctylammonio)propanesulfonate inner salt]",40,–,–,–
CCCCCCCCCCCC[N+](C)(C)CC(O)CS(=O)(=O)[O-] (stereo not shown) [Lauryl Hydroxysultaine],17,<2,<5,<1
Sodium Laurylglucosides Hydroxypropylsulfonate,>50,–,–,–
CCCCCCCC[N+](C)(C)[O-] [Octyldimethylamine Oxide],40,–,–,–
Lauramidopropyl Hydroxysultaine,30,–,–,–
"CCCCCCCCCCCC[N+](C)(C)CCCS(=O)(=O)[O-] [Lauryl Sultaine, N-Dodecyl-N,N-dimethyl-3-ammonio-1-propanesulfonate]",20,–,10,–
"CCCCCCCCCCCCCC[N+](C)(C)CCCS(=O)(=O)[O-] [Myristyl Sultaine, 3-(N,N-Dimethylmyristylammonio)propanesulfonate]",40,–,–,–
"C[N+](C)(CCCS(=O)(=O)[O-])Cc1ccccc1 [Benzyl Sultaine, 3-(Benzyldimethylammonio)propanesulfonate]",40,–,–,–
CCCCCCCC[N+](C)(C)CC(=O)[O-] [Octyl Betaine],40,–,–,–
C[N+](C)(CCO)CC(O)C[N+](C)(C)CCO.[Cl-].[Cl-] [Hydroxypropyl Bis-Hydroxyethyldimonium Chloride],50,–,–,–
CCCCCCCCCCCCCCCC[N+](C)(C)CC(=O)[O-] [Cetyl Betaine],40,–,–,–
"CCCCCCCCCC[N+](C)(C)CCCS(=O)(=O)[O-] [Decyl Sultaine, 3-(Decyldimethylammonio)-propanesulfonate inner salt]",30,–,10,–
Lauryl Glucoside,>30,–,–,10

# Same assay, conditions: no boosting agent; 24 hours at room temperature
Compound,MEC of Sodium Benzoate [mmol/L],MEC of Lactic Acid (Purac FCC 88) [mmol/L],MEC of Caprylhydroxamic Acid (Zeastat) [mmol/L],MEC of Hydroxyacetophenone (SymSave H) [mmol/L]
O=C([O-])c1ccccc1.[Na+] [Sodium Benzoate],7.5,–,–,–
CC(O)C(=O)O (stereo not shown) [Lactic Acid],–,60,–,–
CCCCCCCC(=O)NO [Caprylhydroxamic Acid],–,–,10,–
O=C(CO)c1ccccc1 [Hydroxyacetophenone],–,–,–,20
